Measurements as given in PMC11949107, “Polyunsaturated fatty acids and their endocannabinoid-related metabolites activity at human TRPV1 and TRPA1 ion channels expressed in HEK-293 cells” (PeerJ, 2025).
Values joined by “and” are separate entries in the source; they are usually repeats but may differ in a detail not shown here. Equal entries are not always repeated.

What was measured:
HEK-293 EV cells = assay: Calcium 5 dye [Ca]i assay in HEK-293 empty vector (EV) cells; assay type: cell-based, human; settings: 10 µM; HEK-293 EV cells; percentage of predrug baseline
Protocol: (§1) The cells were incubated in a 5% CO2 humidified atmosphere at 37 °C. Upon reaching approximately 90% confluence in 75 cm^2 flasks, they were trypsinized and transferred to poly-D-lysine coated 96-well plates (Corning, Castle Hill, NSW, Australia) in L-15 medium supplemented with 1% FBS, 100 U penicillin and 100 µg streptomycin ml^−1 (1% P/S), and 15 mM glucose (80 µL volume per well). After an overnight incubation (maximum of 16 h) in humidified room air at 37 °C, TRPV1 and TRPA1 receptor expression was induced 4 h before experimentation by adding to each well 10 µL tetracycline solution to a final concentration of 1 µg ml^−1.
Intracellular calcium [Ca]i levels were assessed using the calcium 5 kit from Molecular Devices (# R8186, Sunnyvale, CA, USA) on a FlexStation 3 Microplate Reader (Molecular Devices, Sunnyvale, CA, USA). […] 90 µL of the dye were loaded into each well of the plate and incubated for 1 h before reading in the FlexStation 3 at 37 °C. […] After 1 min of baseline recording, 20 µL of the drug, dissolved in HBSS with 1% dimethyl sulfoxide (DMSO) (cat # D2650; Sigma-Aldrich, Melbourne, Australia) was added (final DMSO concentration was 0.1% in well).
(§2) The response to agonists was expressed as a percentage change from the average baseline measurement taken for 60s before adding drug. Changes in fluorescence resulting from the addition of solvent were subtracted before normalization to baseline. Concentration–response curves (CRC), Emax and EC50 values were determined using a three-parameter logistic equation (GraphPad Prism, San Diego, CA, USA). […] Potencies were expressed as pEC50, which is the negative log of EC50 in moles per litre (Molar). Where appropriate, unpaired Student’s t-test were used to compare the responses of individual compounds in different conditions, while a one-way ANOVA followed by Dunnett’s multiple comparisons test was used to assess potential differences in responses elicited by a range of compounds. P < 0.05 was considered statistically significant.

human TRPA1 = biological target: T1, human TRPA1 (Homo sapiens, UniProt O75762); assay: Calcium 5 dye [Ca]i assay in HEK-293 Flp-In T-REx cells expressing TRPA1 (agonist response); assay type: cell-based; settings: for Elevation of [Ca]i in HEK-293 TRPA1 cells compared with HEK-293 EV cells: 10 µM (cinnamaldehyde 300 µM); for Change of Ca5 fluorescence, Mean ± SEM, TRPA1 (10 µM): HEK-293 TRPA1 cells, percentage of predrug baseline; for TRPA1 activation at the highest concentration tested / TRPA1 response compared with the highest concentration of cinnamaldehyde (300 µM) / TRPA1 response, Mean± SEM (N): 30 µM; for TRPA1 response, Mean± SEM (N): one-way ANOVA comparison with cinnamaldehyde 300 µM; for [Ca]i response (change in fluorescence), individual replicates: sheet Figure 3(E); for Emax ± SEM % TRPA1 (30 µM): highest tested concentration (30 µM) or derived from concentration-response curves (cinnamaldehyde); for Change in Ca5 fluorescence, individual experiments (CRC raw data): TRPA1 cells
T1 construct: Life Technologies (cells); host or cells: Flp-In T-REx HEK-293
Protocol: as §1
(§3) Intracellular calcium [Ca]i levels were assessed using the calcium 5 kit from Molecular Devices (# R8186, Sunnyvale, CA, USA) on a FlexStation 3 Microplate Reader (Molecular Devices, Sunnyvale, CA, USA). […] Probenecid (cat # 50027; Biotium) which helps to prevent expulsion of calcium indicator from the cells was added to a final concentration of 1.25 mM. 90 µL of the dye were loaded into each well of the plate and incubated for 1 h before reading in the FlexStation 3 at 37 °C. Fluorescence was recorded every 2 s (λ excitation = 485 nm, λ emission = 525 nm) for 5 min. After 1 min of baseline recording, 20 µL of the drug, dissolved in HBSS with 1% dimethyl sulfoxide (DMSO) (cat # D2650; Sigma-Aldrich, Melbourne, Australia) was added (final DMSO concentration was 0.1% in well).
as §2

human TRPV1 = biological target: T2, human TRPV1 (Homo sapiens, UniProt Q8NER1); assay: Calcium 5 dye [Ca]i assay in HEK-293 Flp-In T-REx cells expressing TRPV1 (agonist response); assay type: cell-based; settings: for Elevation of [Ca]i in HEK-293 TRPV1 cells compared with HEK-293 EV cells / Change of Ca5 fluorescence, Mean ± SEM, TRPV1 (10 µM): 10 µM; for Change of Ca5 fluorescence, Mean ± SEM, TRPV1 (10 µM): percentage of predrug baseline; for Maximal TRPV1 response compared with the highest concentration of capsaicin: 30 µM vs capsaicin 10 µM; for Change in Ca5 fluorescence, individual experiments (CRC raw data): TRPV1 cells; for Emax ± SEM % TRPV1 (30 µM): highest tested concentration (30 µM) or derived from concentration-response curves (DHEA, AEA, NADA, capsaicin)
T2 construct: Life Technologies (cells); host or cells: Flp-In T-REx HEK-293
Protocol: as §1, §3, §2

T1 sequence (O75762 whole entry): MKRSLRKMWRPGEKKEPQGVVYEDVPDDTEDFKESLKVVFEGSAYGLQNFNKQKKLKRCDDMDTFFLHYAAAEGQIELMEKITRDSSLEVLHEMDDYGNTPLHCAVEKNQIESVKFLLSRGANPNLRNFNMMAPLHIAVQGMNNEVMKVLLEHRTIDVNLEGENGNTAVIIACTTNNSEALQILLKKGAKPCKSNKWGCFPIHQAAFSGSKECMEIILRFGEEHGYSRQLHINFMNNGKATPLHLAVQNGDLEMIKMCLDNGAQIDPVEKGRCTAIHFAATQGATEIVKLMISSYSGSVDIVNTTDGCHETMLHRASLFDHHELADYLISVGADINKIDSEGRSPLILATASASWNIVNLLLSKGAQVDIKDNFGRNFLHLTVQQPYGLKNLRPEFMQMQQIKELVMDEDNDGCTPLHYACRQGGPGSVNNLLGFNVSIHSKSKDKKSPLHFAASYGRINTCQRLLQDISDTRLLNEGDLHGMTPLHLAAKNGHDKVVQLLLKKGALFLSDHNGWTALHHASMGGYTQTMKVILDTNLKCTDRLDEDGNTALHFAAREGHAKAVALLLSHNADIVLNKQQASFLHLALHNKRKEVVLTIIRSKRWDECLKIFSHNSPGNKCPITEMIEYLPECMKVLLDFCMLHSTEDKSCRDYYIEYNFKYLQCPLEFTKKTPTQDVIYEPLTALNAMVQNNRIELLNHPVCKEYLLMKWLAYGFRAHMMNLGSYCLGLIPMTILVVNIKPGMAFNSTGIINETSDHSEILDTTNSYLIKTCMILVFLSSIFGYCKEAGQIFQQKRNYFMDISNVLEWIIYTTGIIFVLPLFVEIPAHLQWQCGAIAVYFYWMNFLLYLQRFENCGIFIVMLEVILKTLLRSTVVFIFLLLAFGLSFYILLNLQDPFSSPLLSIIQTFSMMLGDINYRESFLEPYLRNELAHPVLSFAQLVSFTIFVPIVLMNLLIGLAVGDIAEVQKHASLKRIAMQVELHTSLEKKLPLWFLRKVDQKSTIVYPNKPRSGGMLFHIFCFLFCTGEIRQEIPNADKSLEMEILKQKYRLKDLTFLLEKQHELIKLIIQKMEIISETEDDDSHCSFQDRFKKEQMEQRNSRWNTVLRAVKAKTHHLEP
T2 sequence (Q8NER1 whole entry): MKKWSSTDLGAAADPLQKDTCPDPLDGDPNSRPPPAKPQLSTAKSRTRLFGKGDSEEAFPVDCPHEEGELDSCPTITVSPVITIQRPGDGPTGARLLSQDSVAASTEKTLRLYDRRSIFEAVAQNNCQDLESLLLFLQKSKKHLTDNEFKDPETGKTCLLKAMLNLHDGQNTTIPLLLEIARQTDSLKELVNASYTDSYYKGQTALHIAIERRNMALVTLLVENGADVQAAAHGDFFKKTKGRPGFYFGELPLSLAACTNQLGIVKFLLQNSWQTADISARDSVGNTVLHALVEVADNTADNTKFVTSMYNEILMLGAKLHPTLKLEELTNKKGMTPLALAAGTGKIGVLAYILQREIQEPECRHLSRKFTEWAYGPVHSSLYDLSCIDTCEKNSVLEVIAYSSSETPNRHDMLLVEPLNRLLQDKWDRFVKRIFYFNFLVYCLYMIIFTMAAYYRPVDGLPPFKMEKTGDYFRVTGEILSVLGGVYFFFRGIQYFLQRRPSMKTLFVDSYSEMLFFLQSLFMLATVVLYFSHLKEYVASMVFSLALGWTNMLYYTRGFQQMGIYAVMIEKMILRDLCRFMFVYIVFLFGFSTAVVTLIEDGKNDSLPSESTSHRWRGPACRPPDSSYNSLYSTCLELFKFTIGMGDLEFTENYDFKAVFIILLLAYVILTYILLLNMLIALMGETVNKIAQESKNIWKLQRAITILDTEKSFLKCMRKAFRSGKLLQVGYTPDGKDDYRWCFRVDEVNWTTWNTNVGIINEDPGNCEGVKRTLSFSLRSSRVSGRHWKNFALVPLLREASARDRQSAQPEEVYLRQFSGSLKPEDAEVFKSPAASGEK

| SMILES | Change of Ca5 fluorescence, Mean ± SEM, EV (10 µM) (HEK-293 EV cells) [%] | Elevation of [Ca]i in HEK-293 TRPA1 cells compared with HEK-293 EV cells (human TRPA1) | Change of Ca5 fluorescence, Mean ± SEM, TRPA1 (10 µM) (human TRPA1) [%] | TRPA1 activation at the highest concentration tested (human TRPA1) | TRPA1 response compared with the highest concentration of cinnamaldehyde (300 µM) (human TRPA1) | TRPA1 response, Mean± SEM (N) (human TRPA1) | Elevation of [Ca]i in HEK-293 TRPV1 cells compared with HEK-293 EV cells (human TRPV1) | Change of Ca5 fluorescence, Mean ± SEM, TRPV1 (10 µM) (human TRPV1; HEK-293 TRPV1 cells) [%] | Maximal TRPV1 response compared with the highest concentration of capsaicin (human TRPV1) | Change in Ca5 fluorescence, individual experiments (CRC raw data) (human TRPV1; log concentration -4.52288 (M)) | Change in Ca5 fluorescence, individual experiments (CRC raw data) (human TRPV1; log concentration -5 (M)) | Change in Ca5 fluorescence, individual experiments (CRC raw data) (human TRPV1; log concentration -5.52288 (M)) | Change in Ca5 fluorescence, individual experiments (CRC raw data) (human TRPV1; log concentration -6 (M)) | Change in Ca5 fluorescence, individual experiments (CRC raw data) (human TRPV1; log concentration -6.52288 (M)) | Change in Ca5 fluorescence, individual experiments (CRC raw data) (human TRPV1; log concentration -7 (M)) | Emax ± SEM % TRPA1 (30 µM) (human TRPA1) [%] | Change in Ca5 fluorescence, individual experiments (CRC raw data) (human TRPA1; log concentration -4.52288 (M)) | Change in Ca5 fluorescence, individual experiments (CRC raw data) (human TRPA1; log concentration -5 (M)) | Change in Ca5 fluorescence, individual experiments (CRC raw data) (human TRPA1; log concentration -5.52288 (M)) | Change in Ca5 fluorescence, individual experiments (CRC raw data) (human TRPA1; log concentration -6 (M)) | further results |
| --- | --- | --- | --- | --- | --- | --- | --- | --- | --- | --- | --- | --- | --- | --- | --- | --- | --- | --- | --- | --- | --- |
| CCCCC/C=C\C/C=C\C/C=C\C/C=C\CCCC(=O)NCCO [AEA, anandamide] | 10 ± 2 | did not produce a change | 78 ± 40 | activated TRPA1 | significantly smaller | 206 ± 60 | significantly greater | 188 ± 36 | did not differ | 110.333 and 353.13 and 181.656 and 93.5107 and 312.513 and 324.288 | 107.669 and 250.336 and 142.845 and 78.9426 and 274.449 and 272.34 | 104.24 and 119.191 and 18.6933 and 67.9069 and 43.3725 and 39.8495 | 85.0507 and 18.1779 and 2.315 and 21.1299 and 4.82 and -0.1525 | 25.9314 and 10.5855 and 2.141 and 2.529 and 1.6051 and -0.1939 | 9.794 and 11.1798 and 5.889 and 1.561 and 3.7 and 2.135 |  |  |  |  |  | Emax at 30 µM (human TRPA1; HEK293, read-out: Emax ± SEM % TRPA1 (30 µM)): 206 ± 60%; [Ca]i response (change in fluorescence), individual replicates (human TRPA1; concentration -4.52288 (log)): 380.839 and 400.035 and 86.0795 and 138.88 and 106.55 and 121.01; [Ca]i response (change in fluorescence), individual replicates (human TRPA1; concentration -5 (log)): 270.188 and 95.8276 and 43.3617 and 6.8753 and 19.4528 and 34.7169; [Ca]i response (change in fluorescence), individual replicates (human TRPA1; concentration -5.52288 (log)): 11.1594 and 5.44 and 3.581 and 5.875; [Ca]i response (change in fluorescence), individual replicates (human TRPA1; concentration -6 (log)): 11.3796 and 3.6077 and 1.689 and 3.893 and 4.817 and 2.419; [Ca]i response (change in fluorescence), individual replicates (human TRPA1; concentration -6.52288 (log)): 9.429 and 4.648 and 1.238 and 3.414; [Ca]i response (change in fluorescence), individual replicates (human TRPA1; concentration -7 (log)): 11.2147 and 3.27 and 3.337 and 2.558; EC50 (human TRPV1): 7.94 µM; Emax at 30 µM (human TRPV1; HEK293, read-out: Emax ± SEM % TRPV1 (30 µM)): 304 ± 55% |
| CC/C=C\C/C=C\C/C=C\C/C=C\C/C=C\CCCC(=O)NCCO [EPEA, eicosapentaenoyl ethanolamide] | 3 ± 1 | did not produce a change | 50 ± 40 | activated TRPA1 | significantly smaller | 274± 60 | did not produce a notable change | 15 ± 8 |  | 12.8698 and 124.435 and 117.092 and 13.2242 and 28.647 and 8.814 | 6.443 and 53.2228 and 9.9712 and 11.9185 and 2.5776 and 3.793 | 5.664 and 10.8694 and 3.209 and 12.2234 and 1.072 and 3.982 | 2.913 and 5.488 and 1.312 and 9.151 and 2.704 and 1.489 | 3.773 and 2.311 and 2.08 and 9.31 and 0.4729 and 1.052 | 7.0578 and 1.12 and 6.0854 and 9.074 and 2.61 and 2.864 | 274 ± 27 | 345.33 and 330.592 and 234.198 and 185.482 and 229.324 and 316.639 | 250.67 and 8.984 and 4.299 and 4.23 and 22.2267 and 8.362 | 6.789 and 4.391 and 2.799 and 3.328 and 5.534 and 8.248 | 2.3186 and 6.477 and 1.9747 and 2.489 and 1.415 and 7.402 | Change in Ca5 fluorescence, individual experiments (CRC raw data) (human TRPA1; log concentration -6.52288 (M)): 2.468 and 7.816 and 1.613 and 1.7019 and 8.366 and 8.252; Change in Ca5 fluorescence, individual experiments (CRC raw data) (human TRPA1; log concentration -7 (M)): 1.245 and 5.751 and 2.391 and 4.163 and 4.153 and 8.202; TRPV1 response, Mean± SEM (N) (human TRPV1; 30 µM, one-way ANOVA comparison with capsaicin 10 µM): 51± 56; Emax ± SEM % TRPV1 (30 µM) (human TRPV1): 51 ± 22% |
| CC/C=C\C/C=C\C/C=C\C/C=C\C/C=C\C/C=C\CCC(=O)NCCO [DHEA, docosahexaenoyl ethanolamide] | 10 ± 3 | significantly greater | 107 ± 50 | activated TRPA1 | did not differ | 335± 60 | significantly greater | 266 ± 51 | did not differ | 421.157 and 266.746 and 225.074 and 238.504 and 226.816 and 459.662 | 358.299 and 237.035 and 372.804 and 59.1046 and 202.763 and 364.608 | 143.051 and 24.824 and 40.8645 and 14.285 and 22.6333 and 69.1812 | 82.6736 and 2.152 and 3.016 and 2.309 and 4.337 and 4.334 | 7.224 and 2.186 and 3.68 and 2.567 and 2.837 and 6.478 | 5.718 and 2.642 and 2.583 and 2.209 and 5.355 and 1.543 | 335 ± 35 | 349.992 and 313.567 and 315.432 and 199.601 and 366.143 and 464.813 | 252.775 and 33.0558 and 3.468 and 15.2698 and 63.0111 and 272.344 | 2.533 and 3.173 and 1.452 and 10.0203 and 10.0547 and 73.8394 | 2.6845 and 3.9598 and 1.663 and 5.882 and 4.143 and 4.307 | Change in Ca5 fluorescence, individual experiments (CRC raw data) (human TRPA1; log concentration -6.52288 (M)): 2.976 and 11.5941 and 1.922 and 8.318 and 8.221 and 6.083; Change in Ca5 fluorescence, individual experiments (CRC raw data) (human TRPA1; log concentration -7 (M)): 8.586 and 11.8101 and 8.8764 and 6.208 and 4.123 and 2.766; pEC50 ± SEM TRPV1 (human TRPV1; HEK-293 TRPV1 cells, EC50 in molar): 5 ± 0.2; Emax ± SEM % TRPV1 (30 µM) (human TRPV1): 439 ± 81% |
